Results: ChEMBL document CHEMBL1201862, “PubChem BioAssay data set” (2004)
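Growth conditions: 96-well plates. Treatment: test compound, 48 hours, 5 concentrations. Analysis: linear interpolation between bracketing concentrations; unreached endpoints set to highest concentration. GI50 is the concentration that inhibits growth by half.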 The source made the active and inactive calls. Cut-off read from the data, not from the text of the source: active = GI50 up to about 1.1 µM and inactive = higher.

Experiments:
Test in all cases: inhibition of tumour cell growth, NCI panel, 48 h
786-0 = system: 786-0
ACHN = system: ACHN
BT-549 = system: BT-549
DU-145 = system: DU-145
HOP-92 = system: HOP-92
HT-29 = system: HT-29
M14 = system: M14
MCF7 = system: MCF7
MOLT-4 = system: MOLT-4
NCI-H23 = system: NCI-H23
NCI-H460 = system: NCI-H460
NCI/ADR-RES = system: NCI/ADR-RES
OVCAR-8 = system: OVCAR-8
SK-MEL-28 = system: SK-MEL-28
SN12C = system: SN12C
U-251 = system: U-251

Compound	GI50 (786-0)	GI50 (ACHN)	GI50 (BT-549)	GI50 (DU-145)	GI50 (HOP-92)	GI50 (HT-29)	GI50 (M14)	GI50 (MCF7)	GI50 (MOLT-4)	GI50 (NCI-H23)	GI50 (NCI-H460)	GI50 (NCI/ADR-RES)	GI50 (OVCAR-8)	GI50 (SK-MEL-28)	GI50 (SN12C)	GI50 (U-251)
O=C(Nc1ccc2c(c1)oc(=O)c1ccccc12)C(Cl)Cl	> 100 µM (inactive)	> 100 µM (inactive)	> 100 µM (inactive)	> 100 µM (inactive)	> 100 µM (inactive)	28.1 µM (inactive)	> 100 µM (inactive)	34.8 µM (inactive)	54.7 µM (inactive)	> 100 µM (inactive)	27.6 µM (inactive)	> 100 µM (inactive)	> 100 µM (inactive)	> 100 µM (inactive)	> 100 µM (inactive)	60.1 µM (inactive)
CO/C=C(/C(=O)OC)c1ccccc1[C@H]1C[C@@H]1c1ccc(OC)cc1	34 µM (inactive)	22 µM (inactive)	17.7 µM (inactive)	32.1 µM (inactive)	9.33 µM (inactive)	14.9 µM (inactive)	18.3 µM (inactive)	32.1 µM (inactive)	17.1 µM (inactive)	27.9 µM (inactive)	21.9 µM (inactive)	20.2 µM (inactive)	28.6 µM (inactive)	18.1 µM (inactive)	32.1 µM (inactive)	30.8 µM (inactive)
CCOC1=NC(C(F)(F)F)(C(F)(F)F)N=C(N2CCOCC2)O1	–	> 100 µM (inactive)	> 100 µM (inactive)	> 100 µM (inactive)	> 100 µM (inactive)	> 100 µM (inactive)	> 100 µM (inactive)	> 100 µM (inactive)	> 100 µM (inactive)	> 100 µM (inactive)	> 100 µM (inactive)	> 100 µM (inactive)	> 100 µM (inactive)	> 100 µM (inactive)	> 100 µM (inactive)	> 100 µM (inactive)
c1ccc(Nc2nnc(-c3ccccc3Nc3ccccc3-c3nnc(Nc4ccccc4)s3)s2)cc1	> 100 µM (inactive)	> 100 µM (inactive)	> 100 µM (inactive)	> 100 µM (inactive)	0.703 µM (active)	> 100 µM (inactive)	> 100 µM (inactive)	> 100 µM (inactive)	61.7 µM (inactive)	> 100 µM (inactive)	> 100 µM (inactive)	> 100 µM (inactive)	> 100 µM (inactive)	> 100 µM (inactive)	–	> 100 µM (inactive)
S=C1N(c2ccc(Cl)cc2)C2=C(/N=N/c3ccccc3)C(=Nc3ccccc3S2)N1c1ccccn1	14.9 µM (inactive)	14.5 µM (inactive)	11.1 µM (inactive)	14.7 µM (inactive)	12.6 µM (inactive)	17.1 µM (inactive)	13.7 µM (inactive)	0.167 µM (active)	13.9 µM (inactive)	15 µM (inactive)	11 µM (inactive)	15.5 µM (inactive)	14.5 µM (inactive)	15.4 µM (inactive)	12.5 µM (inactive)	11 µM (inactive)
CN(CCCNC(=O)c1nn(-c2ccccc2)c2c1ccc1ccccc12)CCCNC(=O)c1nn(-c2ccccc2)c2c1ccc1ccccc12	2.01 µM (inactive)	1.74 µM (inactive)	1.68 µM (inactive)	1.91 µM (inactive)	1.83 µM (inactive)	1.84 µM (inactive)	1.85 µM (inactive)	1.8 µM (inactive)	1.98 µM (inactive)	1.82 µM (inactive)	1.76 µM (inactive)	1.8 µM (inactive)	1.85 µM (inactive)	1.74 µM (inactive)	1.85 µM (inactive)	1.6 µM (inactive)
C=C1CC(C)(c2ccc(Nc3nc4ccccc4c4occc34)cc2)OC1=O (centres undefined)	2.16 µM (inactive)	4.26 µM (inactive)	2.37 µM (inactive)	8.13 µM (inactive)	1.95 µM (inactive)	3.61 µM (inactive)	2 µM (inactive)	3.32 µM (inactive)	1.82 µM (inactive)	1.22 µM (inactive)	14.7 µM (inactive)	4.44 µM (inactive)	2.66 µM (inactive)	13.9 µM (inactive)	1.93 µM (inactive)	5.33 µM (inactive)
COc1nn(Cc2ccccn2)c2ccc([N+](=O)[O-])cc12	> 100 µM (inactive)	48.6 µM (inactive)	44.4 µM (inactive)	> 100 µM (inactive)	20.7 µM (inactive)	70.6 µM (inactive)	> 100 µM (inactive)	> 100 µM (inactive)	53.1 µM (inactive)	> 100 µM (inactive)	> 100 µM (inactive)	64.4 µM (inactive)	> 100 µM (inactive)	> 100 µM (inactive)	> 100 µM (inactive)	> 100 µM (inactive)
Cc1cc(Cc2c(C)c(C)c(Cc3cc(C)cc(C(C)(C)C)c3O)c(C)c2C)c(O)c(C(C)(C)C)c1	> 100 µM (inactive)	> 100 µM (inactive)	> 100 µM (inactive)	> 100 µM (inactive)	> 100 µM (inactive)	> 100 µM (inactive)	> 100 µM (inactive)	> 100 µM (inactive)	1.56 µM (inactive)	–	> 100 µM (inactive)	> 100 µM (inactive)	> 100 µM (inactive)	> 100 µM (inactive)	> 100 µM (inactive)	> 100 µM (inactive)
NCCN1C(=O)c2ccccc2C1c1ccc(Cl)cc1 (centres undefined)	> 100 µM (inactive)	> 100 µM (inactive)	> 100 µM (inactive)	> 100 µM (inactive)	> 100 µM (inactive)	> 100 µM (inactive)	> 100 µM (inactive)	> 100 µM (inactive)	> 100 µM (inactive)	> 100 µM (inactive)	> 100 µM (inactive)	> 100 µM (inactive)	> 100 µM (inactive)	> 100 µM (inactive)	> 100 µM (inactive)	> 100 µM (inactive)
N#Cc1c(N)nc(Sc2ccccc2N)c(C#N)c1-c1ccccc1	13.5 µM (inactive)	19.9 µM (inactive)	10.8 µM (inactive)	14.8 µM (inactive)	24.5 µM (inactive)	24.5 µM (inactive)	24.2 µM (inactive)	10.6 µM (inactive)	11.6 µM (inactive)	13.3 µM (inactive)	14.8 µM (inactive)	11.5 µM (inactive)	20.2 µM (inactive)	28.2 µM (inactive)	–	19.6 µM (inactive)
COc1cccc(-c2cc(O)c3cccnc3n2)c1	0.165 µM (active)	0.179 µM (active)	> 100 µM (inactive)	0.556 µM (active)	0.0776 µM (active)	0.0543 µM (active)	0.0575 µM (active)	0.488 µM (active)	0.221 µM (active)	0.204 µM (active)	0.1 µM (active)	0.0617 µM (active)	0.235 µM (active)	0.234 µM (active)	0.406 µM (active)	0.0984 µM (active)
CCOC(=O)C(C)(C)C(O)C(C)C (centres undefined)	> 100 µM (inactive)	> 100 µM (inactive)	> 100 µM (inactive)	> 100 µM (inactive)	> 100 µM (inactive)	> 100 µM (inactive)	> 100 µM (inactive)	> 100 µM (inactive)	> 100 µM (inactive)	> 100 µM (inactive)	> 100 µM (inactive)	> 100 µM (inactive)	> 100 µM (inactive)	> 100 µM (inactive)	> 100 µM (inactive)	> 100 µM (inactive)
CC(=O)C1(c2ccccc2)CCCN(C)CC1 (centres undefined)	–	–	> 100 µM (inactive)	> 100 µM (inactive)	> 100 µM (inactive)	> 100 µM (inactive)	> 100 µM (inactive)	> 100 µM (inactive)	> 100 µM (inactive)	> 100 µM (inactive)	> 100 µM (inactive)	> 100 µM (inactive)	> 100 µM (inactive)	> 100 µM (inactive)	–	> 100 µM (inactive)
COC(=O)CCc1cc(OC)c(O)c(C(Cc2ccc(OC)c(OC)c2)C(=O)OC)c1 (centres undefined)	> 100 µM (inactive)	> 100 µM (inactive)	> 100 µM (inactive)	> 100 µM (inactive)	> 100 µM (inactive)	> 100 µM (inactive)	> 100 µM (inactive)	> 100 µM (inactive)	> 100 µM (inactive)	> 100 µM (inactive)	> 100 µM (inactive)	> 100 µM (inactive)	> 100 µM (inactive)	> 100 µM (inactive)	> 100 µM (inactive)	> 100 µM (inactive)
O=C(/C=C/c1ccc2c(c1)OCO2)Cc1nc2ccccc2[nH]c1=O	16.7 µM (inactive)	13.6 µM (inactive)	43.7 µM (inactive)	29.2 µM (inactive)	20.7 µM (inactive)	28.5 µM (inactive)	11.7 µM (inactive)	33.9 µM (inactive)	38.9 µM (inactive)	29.8 µM (inactive)	22.6 µM (inactive)	22.1 µM (inactive)	28.5 µM (inactive)	16.4 µM (inactive)	24.1 µM (inactive)	16.8 µM (inactive)
CCC1CCN/C(=N/S(=O)(=O)c2cc(C)c(Cl)cc2S)N1 (centres undefined)	33.5 µM (inactive)	34.6 µM (inactive)	17.7 µM (inactive)	43.7 µM (inactive)	50.9 µM (inactive)	30.1 µM (inactive)	35.7 µM (inactive)	33.3 µM (inactive)	21.7 µM (inactive)	–	8.2 µM (inactive)	38.7 µM (inactive)	19.8 µM (inactive)	52.7 µM (inactive)	43.3 µM (inactive)	13.8 µM (inactive)
CSC(=S)OC1C(CO[Si](C)(C)C(C)(C)C)OC2OC(C)(C)OC21 (centres undefined)	19.5 µM (inactive)	17.1 µM (inactive)	30.8 µM (inactive)	33.5 µM (inactive)	–	11.4 µM (inactive)	47 µM (inactive)	16.3 µM (inactive)	15.3 µM (inactive)	19.9 µM (inactive)	17 µM (inactive)	14.7 µM (inactive)	27.3 µM (inactive)	40.6 µM (inactive)	21.3 µM (inactive)	17.5 µM (inactive)
